Test results published in ChEMBL document CHEMBL1201862, “PubChem BioAssay data set” (2004).
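Where inhibition never reached the appropriate level, the endpoint shown equals the highest concentration tested. Otherwise, values were interpolated linearly from a five-concentration, 48-hour dose response in 96-well plates. At the GI50, growth is halved.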 Active and inactive are the calls of the source. No stated cut-off is given here; in the data, active = GI50 up to about 1.1 µM and inactive = higher.

What was measured:
Assay in all cases: inhibition of tumour cell growth, NCI panel, 48 h
SK-MEL-2 = system: SK-MEL-2
LXFL 529 = system: LXFL 529
DMS-273 = system: DMS-273
DLD-1 = system: DLD-1
SK-MEL-28 = system: SK-MEL-28
SK-OV-3 = system: SK-OV-3
HCT-116 = system: HCT-116
COLO 205 = system: COLO 205
SF-539 = system: SF-539
A498 = system: A498
SNB-19 = system: SNB-19
OVCAR-5 = system: OVCAR-5
UACC-257 = system: UACC-257
NCI-H460 = system: NCI-H460
HCC 2998 = system: HCC 2998
SF-295 = system: SF-295
HL-60 = system: HL-60
SW-620 = system: SW-620
M19-MEL = system: M19-MEL
SNB-78 = system: SNB-78
UACC-62 = system: UACC-62
CCRF-CEM = system: CCRF-CEM
ACHN = system: ACHN
OVCAR-3 = system: OVCAR-3
XF498 = system: XF498
RPMI-8226 = system: RPMI-8226
SK-MEL-5 = system: SK-MEL-5
OVCAR-4 = system: OVCAR-4
SNB-75 = system: SNB-75
M14 = system: M14
IGROV-1 = system: IGROV-1
HOP-92 = system: HOP-92
KM-20L2 = system: KM-20L2
OVCAR-8 = system: OVCAR-8
RXF 393 = system: RXF 393
MOLT-4 = system: MOLT-4
KM12 = system: KM12
EKVX = system: EKVX
SF-268 = system: SF-268
NCI-H23 = system: NCI-H23
A549 = system: A549
LOX IMVI = system: LOX IMVI
HOP-18 = system: HOP-18
SR = system: SR
U-251 = system: U-251
K562 = system: K562
786-0 = system: 786-0
TK-10 = system: TK-10
HT-29 = system: HT-29
UO-31 = system: UO-31
SN12C = system: SN12C
NCI-H522 = system: NCI-H522
NCI-H226 = system: NCI-H226
HOP-62 = system: HOP-62
Malme-3M = system: Malme-3M
HCT-15 = system: HCT-15
CAKI-1 = system: CAKI-1

With `CCN1CCC(O)(c2ccc(Cl)cc2)C(C(=O)c2ccc(Cl)cc2)C1` (stereo unspecified) the GI50 (SK-MEL-2) was > 100 µM (inactive), the GI50 (LXFL 529) was > 100 µM (inactive) and the GI50 (DMS-273) was > 100 µM (inactive). The GI50 (DLD-1) was > 100 µM (inactive), the GI50 (SK-MEL-28) was > 100 µM (inactive) and the GI50 (SK-OV-3) was > 100 µM (inactive). The GI50 (HCT-116) was > 100 µM (inactive), the GI50 (COLO 205) was > 100 µM (inactive) and the GI50 (SF-539) was 26.2 µM (inactive). The GI50 (A498) was > 100 µM (inactive), the GI50 (SNB-19) was > 100 µM (inactive) and the GI50 (OVCAR-5) was > 100 µM (inactive). The GI50 (UACC-257) was > 100 µM (inactive), the GI50 (NCI-H460) was > 100 µM (inactive) and the GI50 (HCC 2998) was > 100 µM (inactive). The GI50 (SF-295) was > 100 µM (inactive), the GI50 (HL-60) was > 100 µM (inactive) and the GI50 (SW-620) was 70.3 µM (inactive). The GI50 (M19-MEL) was > 100 µM (inactive), the GI50 (SNB-78) was > 100 µM (inactive) and the GI50 (UACC-62) was > 100 µM (inactive). The GI50 (CCRF-CEM) was 49.5 µM (inactive), the GI50 (ACHN) was > 100 µM (inactive) and the GI50 (OVCAR-3) was > 100 µM (inactive). The GI50 (XF498) was > 100 µM (inactive), the GI50 (RPMI-8226) was 24.4 µM (inactive) and the GI50 (SK-MEL-5) was > 100 µM (inactive). For the same compound, the GI50 (OVCAR-4) was > 100 µM (inactive), the GI50 (SNB-75) was 42 µM (inactive) and the GI50 (M14) was > 100 µM (inactive). For the same compound, the GI50 (IGROV-1) was > 100 µM (inactive), the GI50 (HOP-92) was > 100 µM (inactive) and the GI50 (KM-20L2) was > 100 µM (inactive). The GI50 (OVCAR-8) was > 100 µM (inactive), the GI50 (RXF 393) was > 100 µM (inactive) and the GI50 (MOLT-4) was > 100 µM (inactive). For the same compound, the GI50 (KM12) was > 100 µM (inactive), the GI50 (EKVX) was > 100 µM (inactive) and the GI50 (SF-268) was > 100 µM (inactive). For the same compound, the GI50 (NCI-H23) was > 100 µM (inactive), the GI50 (A549) was > 100 µM (inactive) and the GI50 (LOX IMVI) was > 100 µM (inactive). For the same compound, the GI50 (HOP-18) was 22.6 µM (inactive), the GI50 (SR) was 36.6 µM (inactive) and the GI50 (U-251) was > 100 µM (inactive). The GI50 (K562) was > 100 µM (inactive), the GI50 (786-0) was > 100 µM (inactive) and the GI50 (TK-10) was > 100 µM (inactive). The GI50 (HT-29) was > 100 µM (inactive), the GI50 (UO-31) was 35.2 µM (inactive) and the GI50 (SN12C) was > 100 µM (inactive). For the same compound, the GI50 (NCI-H522) was 20.4 µM (inactive).

`Nc1c(C(=O)NC23CC4CC(CC(C4)C2)C3)[n+]([O-])c2ccccc2[n+]1[O-]` was tested, and the GI50 (SK-MEL-2) was > 100 µM (inactive), the GI50 (LXFL 529) was > 100 µM (inactive) and the GI50 (DMS-273) was > 100 µM (inactive). For the same compound, the GI50 (DLD-1) was > 100 µM (inactive), the GI50 (SK-MEL-28) was > 100 µM (inactive) and the GI50 (SK-OV-3) was > 100 µM (inactive). The GI50 (COLO 205) was > 100 µM (inactive), the GI50 (SF-539) was > 100 µM (inactive) and the GI50 (A498) was > 100 µM (inactive). The GI50 (NCI-H226) was > 100 µM (inactive), the GI50 (SNB-19) was > 100 µM (inactive) and the GI50 (OVCAR-5) was > 100 µM (inactive). For the same compound, the GI50 (UACC-257) was > 100 µM (inactive), the GI50 (HOP-62) was > 100 µM (inactive) and the GI50 (NCI-H460) was > 100 µM (inactive). For the same compound, the GI50 (HCC 2998) was > 100 µM (inactive), the GI50 (SF-295) was > 100 µM (inactive) and the GI50 (HL-60) was > 100 µM (inactive). For the same compound, the GI50 (SW-620) was > 100 µM (inactive), the GI50 (M19-MEL) was > 100 µM (inactive) and the GI50 (SNB-78) was > 100 µM (inactive). The GI50 (UACC-62) was > 100 µM (inactive), the GI50 (CCRF-CEM) was > 100 µM (inactive) and the GI50 (ACHN) was > 100 µM (inactive). The GI50 (OVCAR-3) was > 100 µM (inactive), the GI50 (XF498) was > 100 µM (inactive) and the GI50 (RPMI-8226) was > 100 µM (inactive). For the same compound, the GI50 (SK-MEL-5) was > 100 µM (inactive), the GI50 (OVCAR-4) was > 100 µM (inactive) and the GI50 (SNB-75) was > 100 µM (inactive). The GI50 (M14) was > 100 µM (inactive), the GI50 (IGROV-1) was > 100 µM (inactive) and the GI50 (HOP-92) was 90.4 µM (inactive). For the same compound, the GI50 (KM-20L2) was > 100 µM (inactive), the GI50 (OVCAR-8) was > 100 µM (inactive) and the GI50 (MOLT-4) was > 100 µM (inactive). The GI50 (KM12) was > 100 µM (inactive), the GI50 (EKVX) was > 100 µM (inactive) and the GI50 (SF-268) was > 100 µM (inactive). The GI50 (NCI-H23) was > 100 µM (inactive), the GI50 (A549) was > 100 µM (inactive) and the GI50 (Malme-3M) was > 100 µM (inactive). The GI50 (LOX IMVI) was > 100 µM (inactive), the GI50 (HCT-15) was over 100 µM and the GI50 (HOP-18) was > 100 µM (inactive). For the same compound, the GI50 (U-251) was > 100 µM (inactive), the GI50 (K562) was > 100 µM (inactive) and the GI50 (CAKI-1) was > 100 µM (inactive). For the same compound, the GI50 (786-0) was > 100 µM (inactive), the GI50 (TK-10) was > 100 µM (inactive) and the GI50 (HT-29) was > 100 µM (inactive). The GI50 (UO-31) was > 100 µM (inactive), the GI50 (SN12C) was > 100 µM (inactive) and the GI50 (NCI-H522) was > 100 µM (inactive).
